pEC50: −log10 of the molar value. Values joined by “and” are separate entries in the source; they are usually repeats but may differ in a detail not shown here. Equal entries are not always repeated. Some results are limits rather than exact numbers.

A short description of this test: RSV-A Assay: The description is Japanese.
For `O=C1Nc2ccccc2C(c2ccccc2)=NC1Nc1nnc(C2CC2)[nH]1` (stereo unspecified), the pEC50 (as a rule, −log10 of the EC50, conventionally taken in molar units) is under 6.10.
On the same count and under the same terms, under `O=C1Nc2ccccc2C(c2ccccc2)=N[C@@H]1Nc1nnc(-c2cccnc2N2CCOCC2)o1` stands over 6.40; under `O=C1Nc2ccccc2C(c2ccccc2)=NC1Nc1nnc(-c2ccncc2)[nH]1` (stereo unspecified), under 6.10.
`O=C(O)c1ccc(-n2cncn2)cc1N1CCOCC1`: the EC50 (in general, the concentration giving half of the maximal effect) is “in the range around 600 nM”.
In the case of `COc1ccc(CN2C(=O)C(C)(N=[N+]=[N-])N=C(c3ccccc3)c3ccccc32)cc1` (stereo unspecified), the pEC50 is under 6.10.
The same measure, in the same setting: for `COC[C@H]1CCCN1c1sc(C(F)(F)F)nc1-c1nnc(N[C@H]2N=C(c3ccccc3)c3ccccc3NC2=O)o1` the value was under 6.10; for `O=C1Nc2ccccc2C(c2ccccc2)=N[C@@H]1Nc1nnc(-c2nc(C3CCCCC3)sc2N2CCOCC2)o1`, over 6.40.
`O=C1Nc2ccccc2C(c2ccccc2)=N[C@@H]1Nc1nnc(-c2nc(C(F)(F)F)sc2N2CCO[C@@H]3C[C@@H]32)o1` gave a pEC50 of under 6.10.
The same measure, in the same setting: for `O=C1Nc2ccccc2C(c2ccccc2)=NC1Nc1nnc(-c2ccc(Cl)cc2)o1` (stereo unspecified) the value was over 6.40.
As to `O=C1Nc2ccccc2C(c2ccccc2)=N[C@@H]1Nc1nnc(-c2ncc(C(F)(F)F)cc2NC[C@@H]2CCCO2)o1`, the EC50 entry was “in the range around 600 nM”.
For `CN1CCN(c2ccc(-c3nnc(NC4N=C(c5ccccc5)c5ccccc5NC4=O)o3)cc2)CC1` (stereo unspecified), the pEC50 is under 6.10.
For `CC1(Nc2cc(C(F)(F)F)cnc2-c2nnc(N[C@H]3N=C(c4ccccc4)c4ccccc4NC3=O)o2)CCOC1` (stereo partly specified), the pEC50 is under 6.10.
On to `O=C1Nc2ccccc2C(c2ccccc2)=NC1Nc1nnc(-c2cccnc2N2CC3CCC(C2)O3)o1` (stereo unspecified), for which the EC50 entry is “in the range around 600 nM”.
With `O=C1Nc2ccccc2C(c2ccccc2)=N[C@@H]1Nc1nnc(-c2ccc(C(F)(F)F)cc2N2CCOCC2)o1`, the pEC50 was over 6.40.
The compound `O=C1Nc2ccccc2C(c2ccccc2)=N[C@@H]1Nc1nnc(-c2ccc(F)nc2N2CCOCC2)o1` showed a pEC50 of over 6.40.
`O=C1Nc2ccccc2C(c2ccccc2)=NC1Nc1nc2ccc(Cl)cc2o1` (stereo unspecified) gave a pEC50 of under 6.10.
Take `Cc1nc(-c2nnc(N[C@H]3N=C(c4ccccc4)c4ccccc4NC3=O)o2)c(C2CCOCC2)s1`: the pEC50 is over 6.40.
Take `O=C1Nc2ccccc2C(c2ccccc2)=NC1Nc1nnc(-c2cncnc2)o1` (stereo unspecified): the pEC50 is under 6.10.
For `N#Cc1cccc(-c2nnc(NC3N=C(c4ccccc4)c4ccccc4NC3=O)o2)c1` (stereo unspecified), the pEC50 was under 6.10.
Turning to `N#Cc1ccc(-c2nnc(NC3N=C(c4ccccc4)c4ccccc4NC3=O)o2)nc1` (stereo unspecified), the EC50 result was “in the range around 600 nM”.
As to `N#Cc1ccc(-c2nnc(NC3N=C(c4ccccc4)c4ccccc4NC3=O)o2)s1` (stereo unspecified), the pEC50 was over 6.40.
Same read-out and setting: for `O=C1Nc2ccccc2C(c2ccccc2)=NC1Nc1nc(-c2ccccc2)no1` (stereo unspecified) the value was under 6.10; for `O=C1OCCc2cc(C(F)(F)F)cnc21`, under 6.10.
The same measure, in the same setting: under `O=C1Nc2ccccc2C(c2ccccc2)=NC1Nc1nnc(-c2ncc(C(F)(F)F)cc2N2CCOCC2)o1` (stereo unspecified) stands over 6.40.
Consider `O=C1Nc2ccccc2C(c2ccccc2)=N[C@@H]1Nc1nnc(-c2ncc(C(F)(F)F)cc2N2CCOCC2)o1` [ZELICAPAVIR], for which the EC50 is < 400 nM (2×) and > 800 nM.
`O=C1Nc2ccccc2C(c2ccccc2)=NC1Nc1ncc(-c2ccccc2)o1` (stereo unspecified) gave a pEC50 of under 6.10.
Still for that read-out and setting: for `N#CCCNc1cc(C(F)(F)F)cnc1-c1nnc(N[C@H]2N=C(c3ccccc3)c3ccccc3NC2=O)o1` the value was over 6.40; for `C[C@@H]1CN(c2ccc(-c3nnc(N[C@H]4N=C(c5ccccc5)c5ccccc5NC4=O)o3)c(Cl)c2)C[C@H](C)O1`, under 6.10.
Regarding `N#Cc1ccc2nccc(-c3nnc(N[C@H]4N=C(c5ccccc5)c5ccccc5NC4=O)o3)c2c1`, the pEC50 was under 6.10.
`O=C1Nc2ccccc2C(c2ccccc2)=NC1Nc1cc(N2CCOCC2)cnn1` (stereo unspecified) showed a pEC50 of under 6.10.
Still for that read-out and setting: under `O=C1Nc2ccccc2C(c2ccccc2)=N[C@@H]1Nc1nnc(-c2ncc(C(F)(F)F)cc2N2CCC(F)CC2)o1` stands under 6.10; under `O=C1Nc2ccccc2C(c2ccccc2)=NC1Nc1nnc(-c2ccccc2-c2ccncc2)o1` (stereo unspecified), under 6.10; under `Cc1nc(N2CCOCC2)c(-c2nnc(N[C@H]3N=C(c4ccccc4)c4ccccc4NC3=O)o2)cc1C#N`, over 6.40.
In turn, `COCCCc1cc(C(F)(F)F)cnc1-c1nnc(N[C@H]2N=C(c3ccccc3)c3ccccc3NC2=O)o1` had a pEC50 of under 6.10.
The compound `CC(C)(c1nc(-c2nnc(N[C@H]3N=C(c4ccccc4)c4ccccc4NC3=O)o2)c(N2CCOCC2)s1)N1CCOCC1` had a pEC50 of over 6.40.
As to `COC1CCN(c2cc(C(F)(F)F)cnc2-c2nnc(N[C@H]3N=C(c4ccccc4)c4ccccc4NC3=O)o2)CC1`, the pEC50 was under 6.10.
Compound `Cc1ccc(-c2nnc(N[C@H]3N=C(c4ccccc4)c4ccccc4NC3=O)o2)c(N2CC3CCC(C2)O3)n1` showed a pEC50 of over 6.40.
In turn, `O=C1Nc2ccccc2C(c2ccccc2)=NC1Nc1nnc(C2CC2)o1` (stereo unspecified) had a pEC50 of under 6.10.
On to `O=C1Nc2ccccc2C(c2ccccc2)=N[C@@H]1Nc1nnc(-c2ncc(C(F)(F)F)cc2NC[C@H]2CCCO2)o1`, for which the pEC50 is over 6.40.
As for `O=C1Nc2ccccc2C(c2ccccc2)=N[C@@H]1Nc1nnc(-c2ccsc2N2CCOCC2)o1`, the pEC50 was over 6.40.
Turning to `O=C1Nc2ccccc2C(c2ccccc2)=N[C@@H]1Nc1nnc(-c2csc(N3CCOCC3)n2)o1`, the EC50 entry was “in the range around 600 nM”.
For the compound `CN(C)c1ccc(-c2nnc(NC3N=C(c4ccccc4)c4ccccc4NC3=O)o2)nc1` (stereo unspecified), the pEC50 is under 6.10.
As to `O=C1Nc2ccccc2C(c2ccccc2)=NC1Nc1nnc(-c2ccc3ccccc3c2)o1` (stereo unspecified), the EC50 result is “in the range around 600 nM”.
`Cn1cnc(-c2nnc(NC3N=C(c4ccccc4)c4ccccc4NC3=O)o2)c1` (stereo unspecified): the pEC50 was under 6.10.
In turn, `O=C1Nc2ccccc2C(c2ccccc2)=NC1Nc1nnc(-c2ccncn2)o1` (stereo unspecified) had a pEC50 of under 6.10.
Same read-out and setting: under `O=C1Nc2ccccc2C(c2ccccc2)=N[C@@H]1Nc1nnc(-c2ncc(C(F)(F)F)cc2N2CCOC(C(F)(F)F)C2)o1` (stereo partly specified) stands over 6.40; under `O=C1Nc2ccccc2C(c2ccccc2)=NC1Nc1nnc(-c2ccccc2OC2CCOCC2)o1` (stereo unspecified), under 6.10.
With `Cc1cc(-c2nnc(N[C@H]3N=C(c4ccccc4)c4ccccc4NC3=O)o2)c(N2CCOCC2)s1`, the pEC50 is over 6.40.
Still for that read-out and setting: under `O=C1Nc2ccccc2C(c2ccccc2)=NC1Nc1nnc(-c2ccc(-n3cccn3)nc2)o1` (stereo unspecified) stands under 6.10; under `Cc1ccc(-c2nnc(N[C@H]3N=C(c4ccccc4)c4ccccc4NC3=O)o2)c(N2CCOC[C@H]2C)n1`, over 6.40.
`Cc1nc(-c2nnc(NC3N=C(c4ccccc4)c4ccccc4NC3=O)o2)ccc1C#N` (stereo unspecified): the EC50 result was “in the range around 600 nM”.
As to `O=C1Nc2ccccc2C(c2ccccc2)=NC1Nc1ncc(-c2ccccc2)s1` (stereo unspecified), the pEC50 is under 6.10.
Still for that read-out and setting: for `Cn1cc(-c2nnc(N[C@H]3N=C(c4ccccc4)c4ccccc4NC3=O)o2)c(N2CCOCC2)n1` the value was over 6.40; for `CO[C@@H](C)CNc1sc(C(F)(F)F)nc1-c1nnc(N[C@H]2N=C(c3ccccc3)c3ccccc3NC2=O)o1`, over 6.40.
Same read-out and setting: under `COc1cc(-c2nnc(NC3N=C(c4ccccc4)c4ccccc4NC3=O)o2)ccn1` (stereo unspecified) stands under 6.10.
For the compound `O=C1Nc2ccccc2C(c2ccccc2)=NC1Nc1nnc(-c2ccncc2N2CCOCC2)o1` (stereo unspecified), the EC50 result was “in the range around 600 nM”.
Compound `O=C1Nc2ccccc2C(c2ccccc2)=NC1Nc1nnc(CCc2ccccc2)o1` (stereo unspecified) showed a pEC50 of under 6.10.
The same measure, in the same setting: for `COC(=O)c1occc1N1CCOCC1` the value was over 6.40; for `O=C1Nc2ccccc2C(c2ccccc2)=N[C@@H]1Nc1nnc(-c2ncc3ccccc3c2N2CCOCC2)o1`, under 6.10; for `O=C1Nc2ccccc2C(c2ccccc2)=NC1Nc1nnc(C2CCNCC2)o1` (stereo unspecified), under 6.10.
`O=C1Nc2ccccc2C(c2ccccc2)=NC1Nc1nnc(-c2cc(C(F)(F)F)cnc2N2CCOCC2)o1` (stereo unspecified) showed a pEC50 of under 6.10.
As for `O=C1Nc2ccccc2C(c2ccccc2)=NC1Nc1nnc(-c2ccc(C(F)(F)F)nc2N2CCOCC2)o1` (stereo unspecified), the EC50 entry was “in the range around 600 nM”.
`O=C1Nc2ccccc2C(c2ccccc2)=NC1Nc1nnc(-c2ccc(OC3CCOCC3)cc2)o1` (stereo unspecified) showed a negative logarithm of the EC50 (pEC50) of under 6.10.
On the same count and under the same terms, under `CCOC(=O)c1nc(C2(O)CCC2)sc1N1CCOCC1` stands over 6.40; under `O=C1Nc2ccccc2C(c2ccccc2)=NC1Nc1nc2ccccc2o1` (stereo unspecified), under 6.10; under `O=C1Nc2ccccc2C(c2ccccc2)=N[C@@H]1Nc1nnc(-c2nnsc2N2CCOCC2)o1`, over 6.40.
In turn, `COCCn1ccnc1-c1nnc(N[C@H]2N=C(c3ccccc3)c3ccccc3NC2=O)o1` gave a pEC50 of under 6.10.
As to `N#Cc1ccc(-c2cnc(NC3N=C(c4ccccc4)c4ccccc4NC3=O)o2)cc1` (stereo unspecified), the half-maximal effective concentration (EC50) result is “in the range around 600 nM”.
The compound `COCCNc1sc(C(F)(F)F)nc1-c1nnc(N[C@H]2N=C(c3ccccc3)c3ccccc3NC2=O)o1` had a pEC50 of over 6.40.
In turn, `O=C1Nc2ccccc2C(c2ccccc2)=NC1Nc1nnc(C2CCC2)o1` (stereo unspecified) showed a pEC50 of under 6.10.
On the same count and under the same terms, for `O=C1Nc2ccccc2C(c2ccccc2)=NC1Nc1nnc(-c2ccc(-n3ccnc3)cc2)o1` (stereo unspecified) the value was over 6.40.
On the same count and under the same terms, for `O=C1Nc2ccccc2C(c2ccccc2)=N[C@@H]1Nc1nnc(-c2nc(C3CC3)ccc2N2CCOCC2)o1` the value was over 6.40.
`O=C1Nc2ccccc2C(c2ccccc2)=NC1Nc1nnc(-c2cccc(N3CCOCC3)c2)o1` (stereo unspecified): the pEC50 is under 6.10.
With `O=C1Nc2ccccc2C(c2ccccc2)=NC1Nc1nnc(-c2ncccn2)o1` (stereo unspecified), the pEC50 is under 6.10.
Consider `O=C1Nc2ccccc2C(c2ccccc2)=N[C@@H]1Nc1nnc(-c2ncc(C3CCCCC3)cc2N2CCOCC2)o1`, for which the pEC50 is over 6.40.
On the same count and under the same terms, for `CCOC(=O)c1nc(C(F)(F)F)sc1C1=CCOCC1` the value was over 6.40.
Take `CCOC(=O)c1c(F)cc(F)cc1F`: the pEC50 was under 6.10.
Take `O=C1Nc2ccccc2C(c2ccccc2)=NC1Nc1nnc(-c2nccs2)o1` (stereo unspecified): the pEC50 is under 6.10.
`Cc1nc(-c2nnc(N[C@H]3N=C(c4ccccc4)c4ccccc4NC3=O)o2)c(C2=CCOCC2)s1` had a pEC50 of over 6.40.
In turn, `Cc1nc(-c2nnc(N[C@H]3N=C(c4ccccc4)c4ccccc4NC3=O)o2)c(Cl)s1` gave a pEC50 of under 6.10.
Same read-out and setting: under `O=C1Nc2ccccc2C(c2ccccc2)=NC1Nc1nnc(-c2ncc(N3CCOCC3)cc2Cl)o1` (stereo unspecified) stands under 6.10.

The record behind these values is ChEMBL document CHEMBL5729210, “Benzodiazepine derivatives as RSV inhibitors” (2022).
